Data from publication PMC9403976, “Elucidating the path to Plasmodium prolyl-tRNA synthetase inhibitors that overcome halofuginone resistance” (Nature Communications, 2022).
Where “and” joins values, the source holds several entries; their conditions need not be identical. Equal values may be shown once. Read-outs that look alike come from different tables or passages of the source.

What was measured:
P. falciparum Dd2-2D4 = assay: P. falciparum asexual blood stage (ABS) growth assay, SYBR Green, 72 h, wild-type parasites; type: cell-based, Plasmodium falciparum; conditions: for ABS growth dose-response, normalized signal (Replicates 1-3): Dd2-2D4
Description: Parasites were maintained under standard culture conditions as described previously[56],[57]. […] The P. falciparum Dd2 cell lines used in this study (Dd2-2D4, halofuginone-induced, and HFGR-I) have previously undergone whole genome sequencing in our labs.
This assay was performed as previously described[8]. In short, P. falciparum erythrocytic-stage parasites at 1% parasitemia and 1% hematocrit in RPMI + 0.5% Albumax were seeded at 40 μL/well in 384-well plates with test compounds in triplicate, dose-response format with 10 μM dihydroartemisinin as a kill-control and blank (no compound) wells as a growth-control. […] After 72 h, growth was quantified by measuring fluorescence (Molecular Devices SpectraMax iD5) following SYBR Green 1 staining. Data were analyzed in Excel and plotted in PRISM (V. 8.4.3–9.1.0, GraphPad).

[1] = test system: halofuginone-induced P. falciparum (elevated proline homeostasis); assay: P. falciparum ABS growth assay, SYBR Green, 72 h, halofuginone-induced parasites; type: cell-based, Plasmodium falciparum; conditions: Halofuginone-Induced (HFG-Induced)
Outline: (§1)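 Dd2-derived erythrocytic-stage parasites at 1% parasitemia and 1% hematocrit in RPMI + 0.5% Albumax were exposed to compounds in triplicate dose-response. Controls were 10 μM dihydroartemisinin (kill) and no-compound wells (growth). Growth was read by SYBR Green 1 fluorescence after 72 h and used to derive EC50.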

[2] = test system: HFGR-I P. falciparum (elevated proline homeostasis and PfcProRS^L482H); assay: P. falciparum ABS growth assay, SYBR Green, 72 h, HFGR-I parasites; type: cell-based, Plasmodium falciparum; conditions: HFGR-I
Outline: as §1

PfcProRS = biological target: T1, PfcProRS (Plasmodium falciparum, UniProt Q8I5R7); type: binding; conditions: for dose-response signal (normalized), SI Fig 8: single replicates
T1 construct: made in house; host or cells: E. coli SoluBL-21
T1 sequence (Q8I5R7 249-746): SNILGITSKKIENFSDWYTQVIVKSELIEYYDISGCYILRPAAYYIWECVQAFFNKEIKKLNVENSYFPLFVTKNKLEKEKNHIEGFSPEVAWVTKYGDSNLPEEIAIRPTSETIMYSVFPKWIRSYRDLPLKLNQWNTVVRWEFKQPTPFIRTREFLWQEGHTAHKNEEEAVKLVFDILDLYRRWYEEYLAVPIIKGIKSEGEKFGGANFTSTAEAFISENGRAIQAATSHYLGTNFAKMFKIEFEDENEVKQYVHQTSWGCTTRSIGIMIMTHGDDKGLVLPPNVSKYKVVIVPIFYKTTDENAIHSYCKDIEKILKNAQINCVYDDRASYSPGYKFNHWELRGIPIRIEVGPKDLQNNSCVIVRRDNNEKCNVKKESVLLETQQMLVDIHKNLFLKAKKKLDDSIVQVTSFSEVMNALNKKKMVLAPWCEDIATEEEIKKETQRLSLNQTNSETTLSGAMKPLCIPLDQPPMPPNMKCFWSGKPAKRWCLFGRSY

HsProRS = HsProRS (Homo sapiens, UniProt P07814); assay: TR-FRET ligand displacement assay with tracer MAT379 (CoraFluor-1-Halo and anti-His6 antibody formats); type: binding; set-up: made in house; host or cells: E. coli SoluBL-21; conditions: for TR-FRET dose-response, normalized signal (SI Fig 11): individual replicates
Sequence of HsProRS (P07814 996-1512): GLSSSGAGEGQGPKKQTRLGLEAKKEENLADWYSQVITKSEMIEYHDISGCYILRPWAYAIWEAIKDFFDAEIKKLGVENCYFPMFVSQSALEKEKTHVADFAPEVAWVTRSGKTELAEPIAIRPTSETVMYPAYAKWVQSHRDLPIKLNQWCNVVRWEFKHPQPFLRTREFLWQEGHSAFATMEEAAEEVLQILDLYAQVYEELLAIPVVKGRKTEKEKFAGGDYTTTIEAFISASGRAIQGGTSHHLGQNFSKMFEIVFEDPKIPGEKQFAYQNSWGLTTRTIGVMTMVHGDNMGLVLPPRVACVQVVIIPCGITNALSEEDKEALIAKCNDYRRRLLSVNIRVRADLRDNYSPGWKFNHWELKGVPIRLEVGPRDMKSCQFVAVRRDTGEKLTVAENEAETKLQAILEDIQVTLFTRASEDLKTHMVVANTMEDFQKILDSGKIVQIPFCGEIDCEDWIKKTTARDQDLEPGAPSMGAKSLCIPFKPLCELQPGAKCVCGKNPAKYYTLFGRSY

CC(C)(C)OC(=O)NC1CCN(C(=O)Nc2nccnc2C(=O)NC2Cc3ccccc3C2)CC1 [compound 7]
ABS growth dose-response, normalized signal (Replicates 1-3) (P. falciparum Dd2-2D4; Log[inhibitor] (M) -5.000): 1 | ABS growth dose-response, normalized signal (Replicates 1-3) (P. falciparum Dd2-2D4; Log[inhibitor] (M) -5.301): 1 | ABS growth dose-response, normalized signal (Replicates 1-3) (P. falciparum Dd2-2D4; Log[inhibitor] (M) -5.602): 1 | ABS growth dose-response, normalized signal (Replicates 1-3) (P. falciparum Dd2-2D4; Log[inhibitor] (M) -5.903): 1 | ABS growth dose-response, normalized signal (Replicates 1-3) (P. falciparum Dd2-2D4; Log[inhibitor] (M) -6.505): 1 | EC50 (P. falciparum Dd2-2D4; Plasmodium falciparum, DD2, SI Fig 16b, values on -log scale, read-out: ABS - Dd2-2D4 (converted)): 90.6 nM | ABS growth dose-response, normalized signal (Replicates 1-3) ([1]; Log[inhibitor] (M) -5.000): 8 and 7 and 3 | ABS growth dose-response, normalized signal (Replicates 1-3) ([1]; Log[inhibitor] (M) -5.301): 22 and 9 and 15 | ABS growth dose-response, normalized signal (Replicates 1-3) ([1]; Log[inhibitor] (M) -5.602): 34 and 37 and 32 | ABS growth dose-response, normalized signal (Replicates 1-3) ([1]; Log[inhibitor] (M) -5.903): 93 and 89 and 84 | ABS growth dose-response, normalized signal (Replicates 1-3) ([1]; Log[inhibitor] (M) -6.204): 92 and 98 and 96 | ABS growth dose-response, normalized signal (Replicates 1-3) ([1]; Log[inhibitor] (M) -6.505): 98 and 96 and 105 | ABS growth dose-response, normalized signal (Replicates 1-3) ([1]; Log[inhibitor] (M) -6.806): 103 (2×) and 107 | ABS growth dose-response, normalized signal (Replicates 1-3) ([1]; Log[inhibitor] (M) -7.107): 109 (2×) and 104 | ABS growth dose-response, normalized signal (Replicates 1-3) ([1]; Log[inhibitor] (M) -7.408): 106 and 107 and 102 | ABS growth dose-response, normalized signal (Replicates 1-3) ([1]; Log[inhibitor] (M) -7.709): 107 and 106 and 101 | ABS growth dose-response, normalized signal (Replicates 1-3) ([1]; Log[inhibitor] (M) -8.010): 100 and 99 and 106 | ABS growth dose-response, normalized signal (Replicates 1-3) ([1]; Log[inhibitor] (M) -8.311): 109 and 100 and 99 | ABS growth dose-response, normalized signal (Replicates 1-3) ([2]; Log[inhibitor] (M) -5.000): 7 (2×) and 6 | ABS growth dose-response, normalized signal (Replicates 1-3) ([2]; Log[inhibitor] (M) -5.301): 18 and 21 and 24 | ABS growth dose-response, normalized signal (Replicates 1-3) ([2]; Log[inhibitor] (M) -5.602): 51 and 50 and 48 | ABS growth dose-response, normalized signal (Replicates 1-3) ([2]; Log[inhibitor] (M) -5.903): 103 and 100 and 102 | ABS growth dose-response, normalized signal (Replicates 1-3) ([2]; Log[inhibitor] (M) -6.204): 99 and 103 and 101 | ABS growth dose-response, normalized signal (Replicates 1-3) ([2]; Log[inhibitor] (M) -6.505): 106 and 103 and 101 | ABS growth dose-response, normalized signal (Replicates 1-3) ([2]; Log[inhibitor] (M) -6.806): 100 and 103 and 108 | ABS growth dose-response, normalized signal (Replicates 1-3) ([2]; Log[inhibitor] (M) -7.107): 110 and 105 and 104 | ABS growth dose-response, normalized signal (Replicates 1-3) ([2]; Log[inhibitor] (M) -7.408): 103 and 110 and 105 | ABS growth dose-response, normalized signal (Replicates 1-3) ([2]; Log[inhibitor] (M) -7.709): 107 and 102 and 105 | ABS growth dose-response, normalized signal (Replicates 1-3) ([2]; Log[inhibitor] (M) -8.010): 102 and 103 and 101 | ABS growth dose-response, normalized signal (Replicates 1-3) ([2]; Log[inhibitor] (M) -8.311): 104 (2×) and 102 | dose-response signal (normalized), SI Fig 8 (PfcProRS; Log[inhibitor] (M) -5.000): 9.23E-03 and -2.50E-03 and -6.65E-02 | dose-response signal (normalized), SI Fig 8 (PfcProRS; Log[inhibitor] (M) -5.301): -5.43E-02 and 1.65E-02 and -1.76E-02 | dose-response signal (normalized), SI Fig 8 (PfcProRS; Log[inhibitor] (M) -5.601): 6.03E-02 and 2.26E-02 and 5.28E-02 | dose-response signal (normalized), SI Fig 8 (PfcProRS; Log[inhibitor] (M) -5.904): 2.65E-02 and 5.41E-02 and 9.36E-02 | dose-response signal (normalized), SI Fig 8 (PfcProRS; Log[inhibitor] (M) -6.208): 2.38E-02 and 1.39E-01 and 9.30E-02 | dose-response signal (normalized), SI Fig 8 (PfcProRS; Log[inhibitor] (M) -6.509): 2.08E-01 and 1.27E-01 and 1.08E-01 | dose-response signal (normalized), SI Fig 8 (PfcProRS; Log[inhibitor] (M) -6.796): 2.54E-01 and 2.41E-01 and 3.20E-01 | dose-response signal (normalized), SI Fig 8 (PfcProRS; Log[inhibitor] (M) -7.108): 4.18E-01 and 3.78E-01 and 4.14E-01 | dose-response signal (normalized), SI Fig 8 (PfcProRS; Log[inhibitor] (M) -7.409): 5.88E-01 and 6.84E-01 and 5.75E-01 | dose-response signal (normalized), SI Fig 8 (PfcProRS; Log[inhibitor] (M) -7.710): 7.68E-01 and 7.32E-01 and 7.90E-01 | dose-response signal (normalized), SI Fig 8 (PfcProRS; Log[inhibitor] (M) -8.000): 9.75E-01 and 1.04E+00 and 8.35E-01 | dose-response signal (normalized), SI Fig 8 (PfcProRS; Log[inhibitor] (M) -8.301): 9.24E-01 and 9.28E-01 and 8.42E-01 | dose-response signal (normalized), SI Fig 8 (PfcProRS; Log[inhibitor] (M) -8.602): 1.04E+00 and 8.85E-01 and 9.51E-01 | dose-response signal (normalized), SI Fig 8 (PfcProRS; Log[inhibitor] (M) -9.000): 1.00E+00 and 1.08E+00 and 9.49E-01 | dose-response signal (normalized), SI Fig 8 (PfcProRS; Log[inhibitor] (M) -9.301): 9.78E-01 and 9.98E-01 and 9.79E-01 | PfcProRS -- best Kd (PfcProRS; SI Fig 16a, values on -log scale): 7.883 | Kd (PfcProRS; read-out: PfcProRS (KD [nM]) + proline): 13.2 nM | Kd (HsProRS; HsProRS (KD [nM]) + proline, 100 μM proline, 250 nM MAT379): 34.8 nM | Kd (HsProRS; HsProRS - best Kd, SI Fig 16a, values on -log scale): 22.1 nM | normalized TR-FRET ligand displacement signal, dose-response replicates (SI Fig 6) (HsProRS; Log[inhibitor] (M) -5.000): -1.10E-01 and -3.98E-02 and -5.51E-02 | TR-FRET dose-response, normalized signal (SI Fig 11) (HsProRS; Log[inhibitor] (M) -5.000): 5.88E-02 and 4.63E-03 and 1.20E-02 | normalized TR-FRET ligand displacement signal, dose-response replicates (SI Fig 6) (HsProRS; Log[inhibitor] (M) -5.301): -3.29E-02 and -2.98E-02 and -2.55E-02 | TR-FRET dose-response, normalized signal (SI Fig 11) (HsProRS; Log[inhibitor] (M) -5.301): 8.22E-04 and 1.04E-02 and 2.94E-02 | normalized TR-FRET ligand displacement signal, dose-response replicates (SI Fig 6) (HsProRS; Log[inhibitor] (M) -5.601): -4.70E-04 and 4.94E-02 and -1.17E-02 | TR-FRET dose-response, normalized signal (SI Fig 11) (HsProRS; Log[inhibitor] (M) -5.601): 2.44E-02 and 7.65E-03 and 4.65E-02 | normalized TR-FRET ligand displacement signal, dose-response replicates (SI Fig 6) (HsProRS; Log[inhibitor] (M) -5.904): -2.26E-02 and 7.29E-03 and -6.02E-02 | TR-FRET dose-response, normalized signal (SI Fig 11) (HsProRS; Log[inhibitor] (M) -5.904): 5.49E-02 and 5.79E-02 and 5.68E-02 | normalized TR-FRET ligand displacement signal, dose-response replicates (SI Fig 6) (HsProRS; Log[inhibitor] (M) -6.208): 5.82E-02 and 7.95E-02 and 2.06E-02 | TR-FRET dose-response, normalized signal (SI Fig 11) (HsProRS; Log[inhibitor] (M) -6.208): 4.71E-02 and 4.91E-02 and 7.38E-02 | normalized TR-FRET ligand displacement signal, dose-response replicates (SI Fig 6) (HsProRS; Log[inhibitor] (M) -6.509): 1.24E-02 and 1.36E-01 and 1.19E-01 | TR-FRET dose-response, normalized signal (SI Fig 11) (HsProRS; Log[inhibitor] (M) -6.509): 1.27E-01 and 1.07E-01 and 8.54E-02 | normalized TR-FRET ligand displacement signal, dose-response replicates (SI Fig 6) (HsProRS; Log[inhibitor] (M) -6.796): 2.14E-01 and 2.70E-01 and 2.50E-01 | TR-FRET dose-response, normalized signal (SI Fig 11) (HsProRS; Log[inhibitor] (M) -6.796): 1.74E-01 and 1.79E-01 and 1.50E-01 | normalized TR-FRET ligand displacement signal, dose-response replicates (SI Fig 6) (HsProRS; Log[inhibitor] (M) -7.108): 3.41E-01 and 3.62E-01 and 3.83E-01 | TR-FRET dose-response, normalized signal (SI Fig 11) (HsProRS; Log[inhibitor] (M) -7.108): 2.66E-01 and 2.89E-01 and 3.00E-01 | normalized TR-FRET ligand displacement signal, dose-response replicates (SI Fig 6) (HsProRS; Log[inhibitor] (M) -7.409): 5.14E-01 and 5.24E-01 and 5.91E-01 | TR-FRET dose-response, normalized signal (SI Fig 11) (HsProRS; Log[inhibitor] (M) -7.409): 4.26E-01 and 3.87E-01 and 4.16E-01 | normalized TR-FRET ligand displacement signal, dose-response replicates (SI Fig 6) (HsProRS; Log[inhibitor] (M) -7.710): 7.15E-01 and 7.22E-01 and 6.26E-01 | TR-FRET dose-response, normalized signal (SI Fig 11) (HsProRS; Log[inhibitor] (M) -7.710): 5.82E-01 and 5.49E-01 and 5.55E-01 | normalized TR-FRET ligand displacement signal, dose-response replicates (SI Fig 6) (HsProRS; Log[inhibitor] (M) -8.000): 9.10E-01 and 9.20E-01 and 8.83E-01 | TR-FRET dose-response, normalized signal (SI Fig 11) (HsProRS; Log[inhibitor] (M) -8.000): 7.19E-01 and 6.97E-01 and 7.02E-01 | normalized TR-FRET ligand displacement signal, dose-response replicates (SI Fig 6) (HsProRS; Log[inhibitor] (M) -8.301): 9.29E-01 and 8.45E-01 and 8.62E-01 | TR-FRET dose-response, normalized signal (SI Fig 11) (HsProRS; Log[inhibitor] (M) -8.301): 8.41E-01 and 8.30E-01 and 7.96E-01 | normalized TR-FRET ligand displacement signal, dose-response replicates (SI Fig 6) (HsProRS; Log[inhibitor] (M) -8.602): 1.00E+00 and 9.03E-01 and 8.98E-01 | TR-FRET dose-response, normalized signal (SI Fig 11) (HsProRS; Log[inhibitor] (M) -8.602): 8.68E-01 and 8.38E-01 and 8.61E-01 | normalized TR-FRET ligand displacement signal, dose-response replicates (SI Fig 6) (HsProRS; Log[inhibitor] (M) -9.000): 9.68E-01 and 8.42E-01 and 9.66E-01 | TR-FRET dose-response, normalized signal (SI Fig 11) (HsProRS; Log[inhibitor] (M) -9.000): 9.12E-01 and 9.38E-01 and 9.42E-01 | normalized TR-FRET ligand displacement signal, dose-response replicates (SI Fig 6) (HsProRS; Log[inhibitor] (M) -9.301): 9.89E-01 and 9.63E-01 and 1.01E+00 | TR-FRET dose-response, normalized signal (SI Fig 11) (HsProRS; Log[inhibitor] (M) -9.301): 9.41E-01 and 9.42E-01 and 9.34E-01
